According to patent US20240182867A1, “CHEMICAL REPROGRAMMING OF HUMAN SOMATIC CELLS INTO PLURIPOTENT CELLS” (Peking University, priority 2021, published 2024):

Key:
[1] = tested on: cellular retinoic acid binding protein (CRABP); conditions: cited from earlier work
[2] = tested on: DNA CpG methylation; test: DNA methylation levels after withdrawing individual chemicals from stage II; assay type: cell-based, human
Excerpt: (§1) In several experiments, to testing the reprogramming efficiency after regulate each small molecules, the indicated small molecules were removed from the cocktails. […]
To perform alignments of bisulfite-treated reads correctly, the Bismark Bisulfite Mapper pipeline was followed. […] Sequence reads were similarly transformed and mapped to prepared genomes using Bowtie2 with parameters set by Bismark. […] In this way, the number of reads were obtained that supported methylation and the number of reads covering every CpG site, non-CpG sites were not considered in later analysis.
To identify the sites showing evidence of methylation, binomial test was performed to each site on these counts to test whether the methylation counts are beyond bisulfite non-conversion events. […] Methylation level for each CpG site passed the test was defined as the fraction of reads supporting methylation out of reads that cover the site (mCpG/CpG). […] The mean CpG methylation level of each sample was calculated as the fraction of all reads supporting CpG methylation out of reads that cover CpG site (all mCpG / all CpG).

[3] = tested on: human somatic cells; test: hCiPSC colonies at the end of reprogramming after withdrawing individual chemicals from stage I or II; assay type: cell-based; conditions: factor removed
Description: Cells were maintained at 37° C. with 21% 02 and 5% CO2. The induction medium was changed every 3-4 days. HEFs were seeded at a density of 1-1.5×10^4 cells per well of a 12-well plate in 15%. FBS-DMEM medium. Change the medium into stage I induction medium on the next day. For stage I induction, single layer epithelial-like cells would emerge at day 4-6 and approach 80%-100% confluence at day 8-12, then change the medium into stage II induction medium. For stage II induction, multi-layered colonies appeared after 8-12 days treatment and these cell colonies would continually grow larger. After totally 16-20 days' stage II treatment, change the medium into stage III condition. For stage III induction, 8-12 days treatment of stage III medium is required and then change the medium into stage IV condition. For stage IV induction, VPA (500 μM) was included in the first 4 days. Primary hCiPSC colonies would emerge after 6-8 days' treatment. At the end of stage IV, immunofluorescent staining of co-expression of OCT4 and NANOG was used to confirm the generation of primary hCiPSC colonies. Primary hCiPSC colony number was calculated as the number of the compact OCT4 positive colonies. Reprogramming efficiency was calculated as the number of primary hCiPSC colonies divided by the number of input HEFs.
In several experiments, to testing the reprogramming efficiency after removing each small molecules, the indicated small molecules were removed from the cocktails. The concentration of the small molecules used to regulate the same pathway or targets were indicated as follow: GSK3 inhibitors (CHIR99021: 3-15 μM; TD114-2: 0.5-2 μM; CHIR98014: 1-3 μM; GSK3βi XV: 0.05-0.2 μM); RA pathway agonists (TTNPB: 0.5-10 μM; Ch55: 1-5 μM; AM580: 0.1-1 μM); Rock inhibitors (TZV: 2-10 μM; Y27632: 2-15 μM; Fasudil: 2-10 μM; HA1100: 2-10 μM); TGFβ inhibitors (A8301: 0.1-5 μM; SB431542: 2-50 μM; LY364947: 0.5 μM; LY21: 0.5 μM; 616452: 10 μM).
In several experiments, to testing the reprogramming efficiency after regulate each small molecules, the indicated small molecules were removed from the cocktails. The concentration of the small molecules used to targeting the same pathway or targets were indicated as follow: GSK3 inhibitors (CHIR99021: 3-15 μM; TD114-2: 0.5-2 μM; CHIR98014: 1-3 μM; GSK3βi XV: 0.05-0.2 μM); TGFβ inhibitors (A8301: 0.2-5 μM; SB431542: 2-50 μM; 616452: 10 μM); RA pathway agonists (TTNPB: 0.2-10 μM; Ch55: 1-10 μM; AM580: 0.1-1 μM); Rock inhibitors (Y27632: 2-15 μM; Fasudil: 2-10 μM; HA1100: 2-10 μM; TZV: 2-10 μM); Smoothened agonists (SAG: 0.2-2 μM; Purmorphamine: 0.5-2 μM; Hg-Ag1.5: 0.5-1 μM; Human shh: 20-200 μM); histone demethylation inhibitors (Tranylcypromine: 2-50 μM; GSK2879: 0.02-2 μM; LSD-C76: 0.2-5 μM; S2101: 0.5-5 μM; LSD-2D: 0.2-5 μM; RN-1: 0.2-5 μM); DNMT inhibitors (5-azaC: 2-15 μM; Decitabine: 0.5-10 μM; RG108: 0.5-10 μM); JNK inhibitors (JNK-in-8: 0.2-2 μM; JNK-in-5: 0.5-1 μM; JNK-in-7: 0.2-2 μM; JNK-in-12: 0.2-0.5 μM); CBP/p300 bromodomain inhibitor (SGC-CBP30: 0.5-2 μM; I-CBP112: 0.5-5 μM; GNE272: 0.5-5μM; GNE409:0.5-5μM); Menin-MLL interaction inhibitor (VTP50469: 0.5-2μM; MI3454: 0.5-2μM; WDR5-IN-4: 0.5-2μM).

[4] = tested on: other human kinases; conditions: cited from earlier work
[5] = tested on: genes that activated at stage II; test: Withdrawing individual chemicals from stage II: plasticity signatures and chromatin accessibility; assay type: cell-based, human
Description: as §1
Approximately 5×10^4 cells of each sample were collected and washed once with cold PBS and re-suspended in 50 μL Lysis buffer (10 mM Tris-HCl PH7.4, 10 mM NaCl, 3 mM MgCl2, 0.5% NP-40). […] All ATAC libraries were sequenced on an Illumina Novaseq 6000 platform and 150 bp paired-end reads were generated. […]
Quality control was performed using FastQC to all samples. The raw ATAC-seq reads were trimmed using Trimmomatic with parameter ‘[…]:NexteraPE-PE.fa:2:30:7:1:true LEADING:3 TRAILING:3 SLIDINGWINDOW:4:15 MINLEN:36’ to remove detected adapters. Then the clean reads were mapped to human reference genome hg19 using Bowtie2 with parameter ‘—very-sensitive’. […] Duplicated reads were removed using MarkDuplicates function of Picard tools. Low quality mapped reads and reads mapped to mitochondrial were filtered using Samtools. […]
Overlapped peaks in different samples were merged and defined sample specific peak sets using R package ChIPpeakAnno. […] The ATAC signal strength around peak region or gene promoter region was quantified using Deeptools.

[6] = tested on: SALL4; test: Withdrawing individual chemicals from stage II: SALL4 activation; assay type: cell-based, human
Description: as §1
Total RNA was isolated using Direct-zol RNA MiniPrep Kit (Zymo Research, R2053). cDNA was synthesized from 0.5-1 μg of total RNA using TransScript First-Strand cDNA Synthesis SuperMix (TransGen Biotech, AT311-03). qPCR was performed by using KAPA SYBR FAST qPCR Kit Master Mix (KAPA Biosystems, KM4101) on a CFX ConnectTM Real-Time System (Bio-Rad). The data were analyzed using the delta-delta Ct method. […]

Question: Which “affinity for CRABP” value [1] does the source give for CC(C)(C)c1cc(C(=O)/C=C/c2ccc(C(=O)O)cc2)cc(C(C)(C)C)c1 [Ch 55, 4-[(1E)-3-[3,5-bis(1,1-Dimethylethyl)phenyl]-3-oxo-1-propenyl]benzoic acid] here?
Answer: low affinity

Question: For Nc1ncn([C@@H]2O[C@H](CO)[C@@H](O)[C@H]2O)c(=O)n1 [5-Azacytidine], which “development of a hypo-methylated state” value [2] is on record?
Answer: required

Question: And the “generation of hCiPSCs” value [3]?
Answer: greatly impaired

Question: For CN(C)CCOc1ccc(-c2nc(-c3ccc4c(c3)CCC4=NO)c(-c3ccncc3)[nH]2)cc1 [SB590885, 5-[2-[4-[2-(Dimethylamino)ethoxy]phenyl]-5-(4-pyridinyl)-1H-imidazol-4-yl]-2,3-dihydro-1H-inden-1-one oxime], which “inhibition to other human kinases” value [4] is on record?
Answer: no inhibition

Question: Which “opened chromatin status of the genes activated at stage II” value ([5]; chromatin accessibility analysis) does the source give for Cc1cc(NC(=O)c2cccc(NC(=O)/C=C/CN(C)C)c2)ccc1Nc1nccc(-c2cccnc2)n1 [JNKIN8] here?
Answer: essential

Question: And the “acquisition of plasticity signatures” value ([5]; stage II)?
Answer: required

Question: What about the “activation of SALL4” value [6] of the same compound?
Answer: required

Question: And the “generation of hCiPSCs” value [3]?
Answer: greatly impaired
